Data published in ChEMBL document CHEMBL1141598, “Optimization of 1H-tetrazole-1-alkanenitriles as potent orally bioavailable growth hormone secretagogues” (Bioorg Med Chem Lett, 2008).

Key:
Rattus norvegicus = test: Increase in plasma GH level in acute anesthetized iv dosed Wistar rat model; format: functional
Cytochrome P450 2D6 = Cytochrome P450 2D6 (Homo sapiens, UniProt P10635); test: Inhibition of CYP2D6; format: ADME
[1] = target: T1, Growth hormone secretagogue receptor type 1 (Homo sapiens, UniProt Q92847); test: Agonist activity at human GHS receptor expressed in H4 glioma cells; format: cell-based
[2] = target: T1, Growth hormone secretagogue receptor type 1; test: Agonist activity at human GHS receptor expressed in H4 glioma cells assessed as intracellular calcium concentration by FLIPR assay; format: functional, cell-based
Cytochrome P450 1A2 = target: T2, Cytochrome P450 1A2 (Homo sapiens, UniProt P05177); test: Inhibition of CYP1A2; format: ADME
T2 sequence (P05177 whole entry): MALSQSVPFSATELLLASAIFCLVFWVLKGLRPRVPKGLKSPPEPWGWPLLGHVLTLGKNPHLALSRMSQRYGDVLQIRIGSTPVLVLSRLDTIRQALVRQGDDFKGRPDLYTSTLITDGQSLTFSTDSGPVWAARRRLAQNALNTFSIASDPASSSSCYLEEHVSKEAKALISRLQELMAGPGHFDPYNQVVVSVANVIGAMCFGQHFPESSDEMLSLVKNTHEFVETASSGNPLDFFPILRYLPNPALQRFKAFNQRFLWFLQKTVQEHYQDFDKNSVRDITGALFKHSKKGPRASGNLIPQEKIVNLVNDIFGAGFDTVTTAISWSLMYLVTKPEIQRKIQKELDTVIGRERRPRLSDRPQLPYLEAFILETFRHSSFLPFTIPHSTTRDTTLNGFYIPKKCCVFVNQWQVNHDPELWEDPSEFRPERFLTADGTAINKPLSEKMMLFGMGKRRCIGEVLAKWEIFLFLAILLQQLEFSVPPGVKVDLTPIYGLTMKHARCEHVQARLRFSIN

Cytochrome P450 3A4 [3] = target: T3, Cytochrome P450 3A4 (Homo sapiens, UniProt P08684); test: Inhibition of CYP3A4 using 7-benzyloxyresorufin as a substrate; format: ADME
Cytochrome P450 3A4 [4] = target: T3, Cytochrome P450 3A4; test: Inhibition of CYP3A4 using 7-benzyloxy-4-trifluoromethylcoumarin as a substrate; format: ADME
Cytochrome P450 2C19 = Cytochrome P450 2C19 (Homo sapiens, UniProt P33261); test: Inhibition of CYP2C19; format: ADME
Cytochrome P450 2C9 = Cytochrome P450 2C9 (Homo sapiens, UniProt P11712); test: Inhibition of CYP2C9; format: ADME
[5] = Oral bioavailability in dog; format: ADME, organism-based, Canis lupus familiaris; conditions: in vivo
[6] = Oral bioavailability in rat; format: ADME, organism-based; conditions: in vivo

T1 sequence (Q92847 whole entry): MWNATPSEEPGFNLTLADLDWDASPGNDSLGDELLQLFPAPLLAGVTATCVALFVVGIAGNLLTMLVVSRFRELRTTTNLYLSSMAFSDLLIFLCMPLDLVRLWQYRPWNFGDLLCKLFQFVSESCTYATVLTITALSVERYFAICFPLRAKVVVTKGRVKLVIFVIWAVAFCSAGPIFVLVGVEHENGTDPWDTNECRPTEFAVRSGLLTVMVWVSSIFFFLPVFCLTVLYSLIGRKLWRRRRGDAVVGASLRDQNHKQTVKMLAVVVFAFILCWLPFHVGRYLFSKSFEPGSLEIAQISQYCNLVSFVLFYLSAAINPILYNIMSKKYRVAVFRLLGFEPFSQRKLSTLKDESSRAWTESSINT
T3 sequence (P08684 whole entry): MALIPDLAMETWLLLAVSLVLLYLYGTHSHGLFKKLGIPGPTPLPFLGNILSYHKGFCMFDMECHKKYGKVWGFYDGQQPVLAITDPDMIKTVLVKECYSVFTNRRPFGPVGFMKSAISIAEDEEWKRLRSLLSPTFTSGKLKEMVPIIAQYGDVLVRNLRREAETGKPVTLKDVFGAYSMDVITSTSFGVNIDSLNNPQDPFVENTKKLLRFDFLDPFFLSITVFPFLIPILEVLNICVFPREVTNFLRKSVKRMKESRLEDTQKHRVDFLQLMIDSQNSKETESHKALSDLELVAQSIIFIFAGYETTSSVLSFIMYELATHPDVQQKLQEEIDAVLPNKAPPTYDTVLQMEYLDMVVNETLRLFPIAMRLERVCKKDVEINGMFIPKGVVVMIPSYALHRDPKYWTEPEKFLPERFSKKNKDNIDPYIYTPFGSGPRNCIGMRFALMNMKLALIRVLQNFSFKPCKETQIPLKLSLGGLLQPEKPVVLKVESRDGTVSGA
Cytochrome P450 2D6, sequence (P10635 whole entry): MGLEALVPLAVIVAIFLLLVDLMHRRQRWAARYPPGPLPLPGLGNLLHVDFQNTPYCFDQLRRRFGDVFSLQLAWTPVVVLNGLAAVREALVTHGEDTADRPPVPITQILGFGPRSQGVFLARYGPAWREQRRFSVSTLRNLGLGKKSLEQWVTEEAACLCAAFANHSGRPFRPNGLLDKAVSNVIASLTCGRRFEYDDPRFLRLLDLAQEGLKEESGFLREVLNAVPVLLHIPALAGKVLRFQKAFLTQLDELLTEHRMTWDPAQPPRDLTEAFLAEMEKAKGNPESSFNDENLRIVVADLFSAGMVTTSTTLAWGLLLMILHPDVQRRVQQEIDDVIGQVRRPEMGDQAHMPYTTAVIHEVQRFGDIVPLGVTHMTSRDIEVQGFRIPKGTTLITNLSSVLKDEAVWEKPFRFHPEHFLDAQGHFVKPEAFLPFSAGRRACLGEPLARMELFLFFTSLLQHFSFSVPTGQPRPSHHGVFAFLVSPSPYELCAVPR
Cytochrome P450 2C9, sequence (P11712 whole entry): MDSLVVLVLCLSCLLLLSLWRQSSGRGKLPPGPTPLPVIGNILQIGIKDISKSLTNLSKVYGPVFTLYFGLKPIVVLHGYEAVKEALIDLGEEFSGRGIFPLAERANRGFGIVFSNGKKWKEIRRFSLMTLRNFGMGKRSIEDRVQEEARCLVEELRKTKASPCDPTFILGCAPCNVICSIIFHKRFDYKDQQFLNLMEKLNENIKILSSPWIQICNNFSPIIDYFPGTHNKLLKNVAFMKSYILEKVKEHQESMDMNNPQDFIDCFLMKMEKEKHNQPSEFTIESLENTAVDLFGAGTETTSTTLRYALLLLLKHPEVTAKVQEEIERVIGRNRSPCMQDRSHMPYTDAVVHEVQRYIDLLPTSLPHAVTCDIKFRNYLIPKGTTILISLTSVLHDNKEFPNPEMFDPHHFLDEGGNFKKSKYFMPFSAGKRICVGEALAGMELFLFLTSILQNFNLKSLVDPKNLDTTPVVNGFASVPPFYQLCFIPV
Cytochrome P450 2C19, sequence (P33261 whole entry): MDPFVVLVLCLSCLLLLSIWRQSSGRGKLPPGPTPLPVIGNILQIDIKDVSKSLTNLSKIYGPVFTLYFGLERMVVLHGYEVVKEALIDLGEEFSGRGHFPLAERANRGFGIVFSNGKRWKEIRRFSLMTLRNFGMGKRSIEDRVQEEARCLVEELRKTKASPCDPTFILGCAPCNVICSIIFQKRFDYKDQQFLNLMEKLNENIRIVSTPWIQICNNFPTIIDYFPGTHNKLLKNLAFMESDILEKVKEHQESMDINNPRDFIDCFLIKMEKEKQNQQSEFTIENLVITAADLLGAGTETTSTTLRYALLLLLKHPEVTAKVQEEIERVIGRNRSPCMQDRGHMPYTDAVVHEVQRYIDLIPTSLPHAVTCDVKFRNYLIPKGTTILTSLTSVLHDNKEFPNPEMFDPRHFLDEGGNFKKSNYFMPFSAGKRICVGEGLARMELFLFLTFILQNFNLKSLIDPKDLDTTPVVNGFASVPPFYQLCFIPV

Structure (SMILES)	Ki [1] [nM]	EC50 [2] [nM]	further results
CC(C)(N)C(=O)N[C@H](COCc1ccccc1)c1nnnn1CCC#N			ED250 (Rattus norvegicus): 4.8 µmol/kg
CC(C)(N)C(=O)N[C@H](COCc1ccccc1)c1nnnn1[C@H](CC#N)COc1ccccc1O	5.7	0.3	IC50 (Cytochrome P450 2D6): 5.1 µM; IC50 (Cytochrome P450 1A2): > 66 µM; IC50 (Cytochrome P450 3A4 [3]): 5.5 µM; ED250 (Rattus norvegicus): <0.15 µmol/kg; IC50 (Cytochrome P450 3A4 [4]): 9.8 µM; IC50 (Cytochrome P450 2C19): 42 µM; IC50 (Cytochrome P450 2C9): > 66 µM
CC(C)(N)C(=O)N[C@H](COCc1ccccc1)c1nnnn1[C@@H](CC#N)COc1ccccn1	503	19	
CC(C)(N)C(=O)N[C@H](COCc1ccccc1)c1nnnn1[C@H](CC#N)COc1ccccn1	40	0.4	IC50 (Cytochrome P450 2D6): > 100 µM; IC50 (Cytochrome P450 1A2): > 100 µM; IC50 (Cytochrome P450 3A4 [3]): 11 µM; bioavailability [5]: 55%; ED250 (Rattus norvegicus): 0.33 µmol/kg; IC50 (Cytochrome P450 3A4 [4]): 59 µM; IC50 (Cytochrome P450 2C19): 33 µM; IC50 (Cytochrome P450 2C9): > 100 µM; bioavailability [6]: 24%
CC(C)(N)C(=O)N[C@H](COCc1ccccc1)c1nnnn1[C@@H](CC#N)COc1ccccc1	197	19	
CC(C)(N)C(=O)N[C@H](COCc1ccccc1)c1nnnn1[C@H](CC#N)COc1ccccc1	7.5	0.4	ED250 (Rattus norvegicus): 0.87 µmol/kg
CC(C)(N)C(=O)N[C@H](COCc1ccccc1)c1nnnn1[C@@H](CC#N)COc1ccccc1O	240	23	
CC(C)(N)C(=O)N[C@H](COCc1ccccc1)c1nnn(CCC(C#N)c2ccccc2)n1 (mixture of isomers)	> 5000	302	
CC(C)(N)C(=O)N[C@H](COCc1ccccc1)c1nnnn1CCC(C#N)c1ccccc1 (mixture of isomers)	611	27	
CC(C)(N)C(=O)N[C@H](COCc1ccccc1)c1nnnn1CC(C#N)Cc1ccccc1 (mixture of isomers)	298	22	
CC(C)(N)C(=O)N[C@H](COCc1ccccc1)c1nnn(CC(C#N)Cc2ccccc2)n1 (mixture of isomers)	> 5000	2470	
CC(C)(N)C(=O)N[C@H](COCc1ccccc1)c1nnnn1C(CC#N)COc1ccccc1F (single isomer, unassigned; diastereomer 1)	18	0.6	
CC(C)(N)C(=O)N[C@H](COCc1ccccc1)c1nnn(C(/C=C/c2ccccc2)CC#N)n1 (single isomer, unassigned; diastereomer 1)	453	19	
CC(C)(N)C(=O)N[C@H](COCc1ccccc1)c1nnn(C(CC#N)CCc2ccccc2)n1 (single isomer, unassigned; diastereomer 1)	2560	150	
CC(C)(N)C(=O)N[C@H](COCc1ccccc1)c1nnnn1C(CC#N)CCc1ccccc1 (single isomer, unassigned; diastereomer 1)	63	0.8	ED250 (Rattus norvegicus): 1.7 µmol/kg
CC(C)(N)C(=O)N[C@H](COCc1ccccc1)c1nnnn1C(/C=C/c1ccccc1)CC#N (single isomer, unassigned; diastereomer 1)	12	0.5	ED250 (Rattus norvegicus): >2 µmol/kg
CC(C)(N)C(=O)N[C@H](COCc1ccccc1)c1nnnn1C(CC#N)COc1ccccc1F (single isomer, unassigned; diastereomer 2)	696	64	
CC(C)(N)C(=O)N[C@H](COCc1ccccc1)c1nnn(C(/C=C/c2ccccc2)CC#N)n1 (single isomer, unassigned; diastereomer 2)	2510	202	
CC(C)(N)C(=O)N[C@H](COCc1ccccc1)c1nnn(C(CC#N)CCc2ccccc2)n1 (single isomer, unassigned; diastereomer 2)	3940	244	
CC(C)(N)C(=O)N[C@H](COCc1ccccc1)c1nnnn1C(CC#N)CCc1ccccc1 (single isomer, unassigned; diastereomer 2)	1380	139	
CC(C)(N)C(=O)N[C@H](COCc1ccccc1)c1nnnn1C(/C=C/c1ccccc1)CC#N (single isomer, unassigned; diastereomer 2)	737	62	
